Here are results for 1 molecule from article PMC6374431, “NMR Analysis on Molecular Interaction of Lignin with Amino Acid Residues of Carbohydrate-Binding Module from Trichoderma reesei Cel7A” (Scientific Reports, 2019).

This assay deals with T1, TrCBM1 (CBM1 of TrCel7A, cellobiohydrolase I) (Trichoderma reesei, UniProt P62694).
T1 construct: gene cbh1; isolated C-terminal family 1 CBM (36 residues) plus residual residues at N- and C-termini from enterokinase and thrombin cleavage; His tag and GFP removed; E. coli BL21(DE3); 15N-labeled, mass 5255
T1 sequence (P62694 478-513): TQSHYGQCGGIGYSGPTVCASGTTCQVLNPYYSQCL
Nature of the assay: NMR titration, chemical shift perturbation (1H-15N SOFAST-HMQC). Type of assay: binding. The conditions noted are these: 100 μM 15N-TrCBM1, 100 mM citric acid buffer pH 5.0, 10% D2O, 298 K; cellohexaose 700-5600 μM; flat plane surface and cleft.

On to `OC[C@H]1O[C@@H](O[C@H]2[C@H](O)[C@@H](O)[C@H](O[C@H]3[C@H](O)[C@@H](O)[C@H](O[C@H]4[C@H](O)[C@@H](O)[C@H](O[C@H]5[C@H](O)[C@@H](O)[C@H](O[C@H]6[C@H](O)[C@@H](O)C(O)O[C@@H]6CO)O[C@@H]5CO)O[C@@H]4CO)O[C@@H]3CO)O[C@@H]2CO)[C@H](O)[C@@H](O)[C@@H]1O` (stereo partly shown) [cellohexaose], for which the “Δδ (CSP)” value is given as “The incremental addition of cellohexaose continuously increased Δδ”.
